Values quoted from earlier work as cited in patent US7858602B2, “Therapeutic and prophylactic uses of cell specific carbonic anhydrase enzymes in treating aging disorders due to oxidative stress and as growth factors of stem cells” (priority 2000, dated 2010).

B1: CA III: Carbonic anhydrase III isolated from adult human skeletal muscle (protein, UniProt P07451 2-260, looked up)
Carbonic anhydrase 3: AKEWGYASHNGPDHWHELFPNAKGENQSPVELHTKDIRHDPSLQPWSVSYDGGSAKTILNNGKTCRVVFDDTYDRSMLRGGPLPGPYRLRQFHLHWGSSDDHGSEHTVDGVKYAAELHLVHWNPKYNTFKEALKQRDGIAVIGIFLKIGHENGEFQIFLDALDKIKTKGKEAPFTKFDPSCLFPACRDYWTYQGSFTTPPCEECIVWLLLKEPMTVSSDQMAKLRSLLSSAENEPPVPLVSNWRPPQPINNRVVRASFK

Legend:
[1] = system: human synovial cells and synovial tissue cultures
[2] = system: carbonic anhydrase VI (CA-VI); conditions: orally administered, patients with CA-VI deficiency
CA = conditions: in vitro and in vivo
[3] = system: sympathetic nerve terminals
muscle fibroblast = conditions: exposure to CA III
[4] = system: synovial connective tissue fibroblast

Molecule | Prostaglandin PGE2 production [1] | hyaluronic acid production [1] | nitric oxide production [1] | effect on CA (CA) | further results
CNCCC(Oc1ccc(C(F)(F)F)cc1)c1ccccc1 (stereo not drawn) [Fluoxetine] | inhibit | inhibit | inhibit |  | 
[Zn] [Zinc] |  |  |  |  | stimulation of synthesis/secretion of CA-VI, treatment result [2]: successful
CCCCC[C@H](O)/C=C/[C@H]1[C@H](O)CC(=O)[C@@H]1CCCCCCC(=O)O [prostaglandin E1] |  |  |  | inhibit | 
CN(C)CCC=C1c2ccccc2CCc2ccccc21 [aminitriptylline] | inhibit | inhibit | inhibit |  | 
CCCCC[C@H](O)/C=C/[C@H]1[C@H](O)CC(=O)[C@@H]1C/C=C\CCCC(=O)O [prostaglandin E2, Prostaglandin E2] |  |  |  | inhibit | egress of norepinephrine from sympathetic nerve terminals [3]: inhibits; gastric acid output (gastric acid output): inhibit
B1 |  |  |  |  | increase in muscle fibroblast (muscle fibroblast): 20-45%; increase of synovial connective tissue fibroblast on exposure to CA III ([4]; cell culture): 2 to 12 fold; hyaluronic acid synthesis ([4]; cell culture, exposure to CA III): increased; increase in synovial fibroblasts ([4]; exposure to CA III): 16-70%
